Experimental data published in patent US20240277715A1, “COMBINATION THERAPIES COMPRISING A METTL3 INHIBITOR AND A FURTHER ANTICANCER AGENT” (Storm Therapeutics Limited, priority 2021, published 2024).
Read-outs that look alike come from different tables or passages of the source.

Tests used:
[1] = test system: Kasumi1 AML cell line; experiment: AML cell viability, CellTiter-Glo combination matrix, Kasumi1; format: cell-based; details: for IC50: Homo sapiens, Kasumi 1, Kasumi1 cells
Procedure: (§1) The sensitivity of AML cell lines to combinations of METTL3 inhibitor and standards of care was determined as described. Dose response curves of venetoclax were determined either alone or in the presence of different concentrations of METTL3 inhibitor that are known to be active in cells.
(§2) Synergistic interactions occur when the IC50 value decreases in the presence of METTL3 inhibitor. […] Antagonistic interactions occur when the IC50 value increases in the presence of METTL3 inhibitor.
(§3) 24 h before cell treatment, homogenize, stain with Trypan blue and count viable cells using CellOMeter Auto T4. Dilute cells in media at 400 000 cells/ml to ensure an exponential growth the day after.
(§4) On treatment day, homogenize, stain with Trypan blue and count viable cells using CellOMeter Auto T4. Dilute to the proper cell seeding density according to Table 6 in cell media.
(§5) • Dispense drug (see Table 7) and METTL3 inhibitor in semi-log dose-response matrix and DMSO in 384-well plates using D300e Nanodispenser (Tecan). • 6× compound solution preparation: add 40 μL of cell medium in compound-containing plates and homogenize using the ViaFlo device (Integra) • Dispense 30 μl of cell suspension per well in three replicate 384-well white Ultra-Low-Attachment plates (Sbio) using ViaFlow device (Integra) • Transfer 6 μL of the 6× compound solution in each 30 μL cell suspension-containing plate. • Incubate at 37° C. 5% CO2 for 3 to 5 days.
(§6) • Add 35 μL CellTiter-Glo (Promega) in wells (vol/vol) using ViaFlo device (Integra). • Incubate at RT 10 min in the dark, with agitation the first minute, and read luminescence on the Ensight device (Perkin Elmer).
(§7) Raw data were converted to % viability by normalization to DMSO controls. IC50 determination was performed using GraphPad Prism and fitting curves to the standard nonlinear regression four parameter equation (Y=Bottom+(Top-Bottom)/(1+(IC50/X)^HillSlope)) least squares method, and synergy was assessed by comparison of IC50 values of the standard of care in the presence or absence of different concentrations of METTL3 inhibitor (see FIGS. 12 to 19).

[2] = test system: AML; details: cited from earlier work
[3] = test system: MOLM13 AML cell line; experiment: AML cell viability, CellTiter-Glo combination matrix, MOLM13; format: cell-based; details: for interaction with venetoclax: MOLM13 AML cell line
Procedure: as §1, §2, §3, §4, §5, §6, §7

[4] = test system: FLT3-mutant MOLM-14 AML cell line; experiment: AML cell viability, CellTiter-Glo combination matrix, MOLM-14; format: cell-based
Procedure: as §3, §4, §5, §6
Raw data were converted to % viability by normalization to DMSO controls.

[5] = test system: SKOV3 human ovarian cancer cells; experiment: Tumour killing assay (TKA), SKOV3 spheroid / PBMC co-culture; format: cell-based; details: STM3480 0.05 micromolar, FIG. 1 and 2
Procedure: This experiment evaluates the effects of human donor Peripheral Blood Mononuclear Cells (PBMCs) to attack and kill fluorescently-labelled tumour cells in a co-culture assay. Briefly, test agents are incubated at different concentrations with SKOV3 human ovarian cancer cells in the presence or absence of human donor PBMCs and tumour growth is monitored continuously by real time imaging of the NucLight Red-labelled SKOV3 cells for several days.
NucLight Red (Incucyte, Essen Biosciences)-transduced SK-OV-3 (SK-OV-3-NLR) cells were transferred into Ultra-low attachment 96 well plates with spontaneous spheroid formation occurring over 48 hours. Peripheral blood mononuclear cells (PBMC) were isolated from healthy single donor buffy coats by density separation. Prior to co-culture of SK-OV-3-NLR spheroids with PBMC, SK-OV-3-NLR spheroids were treated with 10 ng/ml of interferon gamma (IFNγ). All treatments, including STM3480 and Pembrolizumab, were added at the point of co-culture in a final total volume of 200 μl/per well. Assay plates were transferred into an IncuCyte S3 and images were collected every 2 hours for 7 days. Following experimental completion, an analysis definition was applied to quantify the Total NLR Integrated Intensity present on a per well basis. Changes in spheroid size were quantified by plotting Total NLR Integrated Intensity against time.

[6] = Kasumi1, with increasing concentrations of STM3006
[7] = Kasumi1, with increasing concentrations of STM3480

## Nc1ncn([C@@H]2O[C@H](CO)[C@@H](O)[C@H]2O)c(=O)n1 [5′-azacitidine]
[1]; [6]
  change in IC50 of the standard of care: No change
[1]; [7]
  change in IC50 of the standard of care: No change

## O=C(NCc1cn2cc(CNCC3CCCCC3)ccc2n1)c1cc(=O)n2ccccc2n1 [STM2457]
[2]
  AML growth: reduction
  differentiation and apoptosis: increase

## CC1(C)CCN(Cc2ccc3nc(Cn4cc(-c5cc(Br)cc6[nH]ncc56)nn4)cn3c2)CC1 [STM3006, 6-bromo-4-[1-({6-[(4,4-dimethylpiperidin-1-yl)methyl]imidazo[1,2-a]pyridin-2-yl}methyl)-1H-1,2,3-triazol-4-yl]-1H-indazole]
[1]; Kasumi1, combination with daunorubicin
  cell viability with increasing concentrations of METTL3 inhibitor: decreasing viability
[1]; Kasumi1 AML cell line
  interaction with 5′-azacitidine: additive
  interaction with cytarabine: additive
  interaction with daunorubicin: additive
  interaction with venetoclax: synergistic
[3]
  interaction with venetoclax: synergistic
[4]; FLT3-mutant MOLM-14 AML cell line
  interaction with quizartinib: additive
[4]; MOLM-14, combination with quizartinib
  cell viability with increasing concentrations of METTL3 inhibitor: decreasing viability

## O=C(NCc1ccc2cc(CNCC34CC(F)(C3)C4)[nH]c2c1)c1cc(=O)n2ccccc2n1 [STM3675, N-[(2-{[({3-fluorobicyclo[1.1.1]pentan-1-yl}methyl)amino]methyl}-1H-indol-6-yl)methyl]-4-oxo-4H-pyrido[1,2-a]pyrimidine-2-carboxamide]
[1]; Kasumi1 AML cell line
  interaction with venetoclax: synergistic
[3]
  interaction with venetoclax: synergistic

## Nc1ccn([C@@H]2O[C@H](CO)[C@@H](O)[C@@H]2O)c(=O)n1 [cytarabine]
[1]; [6]
  change in IC50 of the standard of care: No change
[1]; [7]
  change in IC50 of the standard of care: No change

## COc1cccc2c1C(=O)c1c(O)c3c(c(O)c1C2=O)C[C@@](O)(C(C)=O)C[C@@H]3O[C@H]1C[C@H](N)[C@H](O)[C@H](C)O1 [daunorubicin]
[1]; [6]
  change in IC50 of the standard of care: No change
[1]; [7]
  change in IC50 of the standard of care: No change

## CC1(C)CCC(CN2CCN(c3ccc(C(=O)NS(=O)(=O)c4ccc(NCC5CCOCC5)c([N+](=O)[O-])c4)c(Oc4cnc5[nH]ccc5c4)c3)CC2)=C(c2ccc(Cl)cc2)C1 [venetoclax, 4-{4-[(4′-chloro-5,5-dimethyl[3,4,5,6-tetrahydro[1,1′-biphenyl]]-2-yl)methyl]piperazin-1-yl}-N-(3-nitro-4-{[(oxan-4-yl)methyl]amino}benzene-1-sulfonyl)-2-[(1H-pyrrolo[2,3-b]pyridin-5-yl)oxy]benzamide]
[1]; in the presence of 316.2 nM STM3480, read-out: venetoclax IC50
  IC50: 50.9 nM
[1]; in the presence of 1000 nM STM3480, read-out: venetoclax IC50
  IC50: 22.2 nM
[1]; venetoclax alone, read-out: IC50 of venetoclax
  IC50: 238 nM
[1]; [6]
  change in IC50 of the standard of care: decreasing
[1]; [7]
  change in IC50 of the standard of care: decreasing
[1]; Kasumi1, with increasing concentrations of STM3675
  change in IC50 of the standard of care: decreasing
[3]; MOLM13, with increasing concentrations of STM3006
  change in IC50 of the standard of care: decreasing
[3]; MOLM13, with increasing concentrations of STM3480
  change in IC50 of the standard of care: decreasing
[3]; MOLM13, with increasing concentrations of STM3675
  change in IC50 of the standard of care: decreasing

## Pembrolizumab: anti-PD1 antibody [reference compound]
[5]
  tumour viability (normalized NucLight Red [NLR] fluorescence) against time: greater decline in viable tumour cells
